Laboratory results published in US7186725B2, “Anti-inflammatory compositions and methods” (Genzyme Corporation, priority 2003, dated 2007).
Read-outs that look alike come from different tables or passages of the source.

Key:
purified rat T cells = assay: Concanavalin A activated T-cell proliferation assay ([3H] thymidine uptake); type: cell-based; settings: 96 h, @ 1 mM
Procedure: Compounds of Formula I (above), based on an ethyl dimethylaminopropylurea (1) parent structure, have been discovered as active agents against a modified Concanavalin A activated T-cell proliferation assay using purified rat T-cells. These cells were incubated for 4 days and pulsed with [^3H] thymidine for the last 16 hrs of incubation. [^3H] Thymidine uptake was measured as the mean counts per minute (cpm) of duplicate experimental cultures. The compounds of the present invention were discovered by screening a compound library. (directed analogs of parent compound 1) using an assay designed to identify inhibitors of Concanavalin A stimulated T-cell proliferation. Normal dermal fibroblasts and kidney epithelial cell toxicity assays were run on active compounds to eliminate non-selective cytotoxic compounds.

IL-1β = assay: Cellular assay: Mediator Release, IL-1β; type: cell-based; settings: IL-1β release
IL-10 = assay: Cellular assay: Mediator Release, IL-10; type: cell-based; settings: IL-10 release
IL-5 = assay: Cellular assay: Mediator Release, IL-5; type: cell-based; settings: IL-5 release
IL-6 = assay: Cellular assay: Mediator Release, IL-6; type: cell-based; settings: IL-6 release
Interferon-γ = assay: Cellular assay: Mediator Release, Interferon-γ; type: cell-based
TNF-α = assay: Cellular assay: Mediator Release, TNF-α; type: cell-based
NF-κB = assay: Cellular assay: Transcription Response, NF-κB; type: cell-based
[1] = test system: Distal colitis induced by DNBS; assay: Inflammatory Bowel Disease: DNBS-induced distal colitis in rats; type: in vivo; settings: rat
Procedure: CM Hogaboam et al., Eur. J. Pharmacol.; 309; 261 (1996) Groups of 3 derived-male, overnight-fasted rats weighing 150±10 g are used. Distal colitis is induced by intra-colonic instillation of 0.5 ml/rat of DNBS (2,4-dinitrobenzene sulfonic acid, 60 mg/ml in ethanol 30%) after which air (2 ml) is gently injected through the cannula to ensure that the solution remains in the colon. […] The animals are sacrificed 24 hours after the final dose of test compound administration and each colon is removed and weighed.

[2] = test system: Septic Shock, Lipopolysaccharide; assay: Septic Shock, Lipopolysaccharide plus galactosamine in mice; type: in vivo, C57/BL mice
Procedure: Groups of 4 or 6 C57/BL mice weighing 18–20g were used. […] The blank control group was only applied 10% cremophor/10% ethanol IP and without LPS challenge. Mortality is recorded every 12 hours after challenge over a 3-day period. Protection of mortality by 50 percent or more (≧50%) indicates significant activity.

[3] = test system: Autoimmune Encephalomyelitis (EAE); assay: Autoimmune Encephalomyelitis (EAE) model, PLP 139-151 immunized mice; type: in vivo, SJL/J mice
[4] = Table 2, read-out: Thymidine Uptake (% Reduction @ 1 mM)
[5] = Table 3, read-out: Thymidine Uptake (% Reduction @ 1 mM)
[6] = 25 mg/kg daily day 1 to 16, FIG. 1

CCNC(=O)NCCCN1CCN(c2cccc(C)c2C)CC1 [Compound 31, 1-{3′-[4-(2,3-xylyl)-piperazin-1-yl]-propyl}-3-ethyl urea]
inhibition at 1000 µM (purified rat T cells; [4]): 21%

CCNC(=O)NCCCN1CCN(c2ncc(C(F)(F)F)cc2Cl)CC1 [Compound 32]
inhibition at 1000 µM (purified rat T cells; [4]): 27%

CCNC(=O)NCCCN1CCC(Cc2ccccc2)CC1 [Compound 33]
inhibition at 1000 µM (purified rat T cells; [4]): 17%

CCNC(=O)NCCCN1CCc2ccccc2C1Cc1ccccc1 (stereo not drawn) [Compound 34]
inhibition at 1000 µM (purified rat T cells; [4]): 12%

CCNC(=O)NCCCN1CCC(C(=O)c2ccc(Cl)cc2)CC1 [Compound 35]
inhibition at 1000 µM (purified rat T cells; [4]): 55%

CCNC(=O)NCCCN1CCN(c2cc(Cl)ccc2C)CC1 [Compound 36]
inhibition at 1000 µM (purified rat T cells; [4]): 18%

CCNC(=O)NCCCN1CCN(C/C=C\c2ccccc2)CC1 [Compound 37]
inhibition at 1000 µM (purified rat T cells; [4]): 23%

CCNC(=O)NCCCN1CCN(c2ccccc2)C(C)C1 (stereo not drawn) [Compound 38]
inhibition at 1000 µM (purified rat T cells; [4]): 13%

CCNC(=O)NCCCN1CCN(c2cc(C)ccc2C)CC1 [Compound 39]
inhibition at 1000 µM (purified rat T cells; [4]): 23%

CN(C)CCCNC(=O)NCC12CCC3CC(CC1C3)C2 (stereo not drawn) [Compound 40]
inhibition at 1000 µM (purified rat T cells; [5]): 20%

CN(C)CCCNC(=O)NCCCCO [Compound 41]
inhibition at 1000 µM (purified rat T cells; [5]): 12%

COc1ccccc1CNC(=O)NCCCN(C)C [Compound 43]
inhibition at 1000 µM (purified rat T cells; [5]): 24%

CN(C)CCCNC(=O)NCCC(c1ccccc1)c1ccccc1 [Compound 44]
inhibition at 1000 µM (purified rat T cells; [5]): 21%

CN(C)CCCNC(=O)NC1Cc2ccccc2C1 [Compound 45]
inhibition at 1000 µM (purified rat T cells; [5]): 20%

CN(C)CCCNC(=O)NCc1ccccc1Cl [Compound 46]
inhibition at 1000 µM (purified rat T cells; [5]): 21%

COc1ccc(CNC(=O)NCCCN(C)C)c(OC)c1 [Compound 47]
inhibition at 1000 µM (purified rat T cells; [5]): 20%

CN(C)CCCNC(=O)NCCc1cccc(Cl)c1 [Compound 48]
inhibition at 1000 µM (purified rat T cells; [5]): 26%

CN(C)CCCNC(=O)Nc1nccc2ccccc12 [Compound 49]
inhibition at 1000 µM (purified rat T cells; [5]): 36%

CN(C)CCCNC(=O)Nc1ncc([N+](=O)[O-])s1 [Compound 50]
inhibition at 1000 µM (purified rat T cells; [5]): 22%

CN(C)CCCNC(=O)Nc1ncnc2[nH]ncc12 [Compound 51]
inhibition at 1000 µM (purified rat T cells; [5]): 86%

CN(C)CCCNC(=O)Nc1nnn[nH]1 [Compound 52]
inhibition at 1000 µM (purified rat T cells; [5]): 14%

COCCCNC(=O)NCCCN(C)C [Compound 53]
inhibition at 1000 µM (purified rat T cells; [5]): 26%

CN(C)CCCNC(=O)NCc1csc2ccccc12 [Compound 54]
inhibition at 1000 µM (purified rat T cells; [5]): 16%

CN(C)CCCNC(=O)NCCc1cccs1 [Compound 55]
inhibition at 1000 µM (purified rat T cells; [5]): 17%

CCNC(=O)Nc1nc2cc(C)c(C)cc2[nH]1 [Compound 56, 1-(5,6-dimethyl-1H-benzoimidazol-2-yl)-3-ethyl urea]
inhibition at 10000 µM (IL-1β; Conc. 10 mM): 91% | IC50 (IL-1β): 2.06 µM | inhibition at 10000 µM (IL-10; Conc. 10 mM): 63% | IC50 (IL-10): 5.74 µM | inhibition at 10000 µM (IL-5; Conc. 10 mM): 54% | IC50 (IL-5): 9.28 µM | inhibition at 10000 µM (IL-6; Conc. 10 mM): 82% | IC50 (IL-6): 3.89 µM | IC50 (Interferon-γ): 6.49 µM | inhibition at 10000 µM (Interferon-γ; Conc. 10 mM): 57% | IC50 (TNF-α): 1.94 µM | inhibition at 10000 µM (TNF-α; Conc. 10 mM): 89% | IC50 (NF-κB): 9.65 µM | inhibition at 10000 µM (NF-κB; Conc. 10 mM): 52% | Ave. (colon to 100 g body weight ratio) ([1]; PO 5 mg/kg × 7): 0.678 | Inhibition (of net increase of colon to 100 g body weight ratio, relative to vehicle with DNBS) ([1]; PO 5 mg/kg × 7): 12% | Net Inc. (net increase of colon to 100 g body weight ratio) ([1]; PO 5 mg/kg × 7): 0.381 | response in IBD model at the highest dose ([1]; PO 25 mg/kg): statistically significant response | Ave. (colon to 100 g body weight ratio) ([1]; PO 25 mg/kg × 7): 0.585 | Inhibition (of net increase of colon to 100 g body weight ratio, relative to vehicle with DNBS) ([1]; PO 25 mg/kg × 7): 34% | Net Inc. (net increase of colon to 100 g body weight ratio) ([1]; PO 25 mg/kg × 7): 0.288 | activity in IBD model ([1]; PO 25 and 5 mg/kg): dose responsive activity | Inhibition (protection of mortality) ([2]; IP 5 mg/kg): 17% | Total Deaths ([2]; IP 5 mg/kg, N 6, 3-day period): 5 | Inhibition (protection of mortality) ([2]; IP 25 mg/kg): 50% | response in septic shock model at the highest dose ([2]; IP 25 mg/kg): statistically significant response | Total Deaths ([2]; IP 25 mg/kg, N 6, 3-day period): 3 | activity in septic shock model ([2]; IP 25 and 5 mg/kg): dose responsive activity | effect on disease onset (ADSS) ([3]; 24 mg/kg daily day 1 to 16, FIG. 2): significant effect

CCNC(=O)NCCCN1CCN(c2cccc(C)c2C)CC1 [Compound 57, 1-{3′-[4-(2,3-xylyl)-piperazin-1-yl]-propyl}-3-ethyl urea]
effect on disease onset (ADSS) [3, 6]: had an effect on disease onset | effect on maximum severity (ADSS) [3, 6]: not on maximum severity

CC(=O)OCC(=O)[C@@]1(O)[C@H](C)C[C@H]2[C@@H]3CCC4=CC(=O)C=C[C@]4(C)[C@@]3(F)[C@@H](O)C[C@@]21C [Dexamethasone-21-acetate, reference compound]
Inhibition (protection of mortality) ([2]; 1 mg/kg PO dose): 100% | Total Deaths ([2]; 1 mg/kg PO dose, N 4, 3-day period): 0

O=C(O)c1cc(/N=N/c2ccc(S(=O)(=O)Nc3ccccn3)cc2)ccc1O [Sulfasalazine, reference compound]
Ave. (colon to 100 g body weight ratio) ([1]; PO 300 mg/kg × 7): 0.551 | Inhibition (of net increase of colon to 100 g body weight ratio, relative to vehicle with DNBS) ([1]; PO × 7): 41% | Net Inc. (net increase of colon to 100 g body weight ratio) ([1]; PO × 7): 0.254
